Source: patent US20170240592A1, “GADD45BETA/MKK7 INHIBITOR FOR THE TREATMENT OF A RESISTANT HAEMATOLOGICAL MALIGNANCY” (IMPERIAL INNOVATIONS LIMITED, priority 2014, published 2017)

How the values were obtained:
[1] = system: mouse LN cells and splenocytes; assay: trypan blue exclusion assay, survival of mouse LN cells and splenocytes; format: cell-based; conditions: DTP3 100 μM, PS-1145 20 μM, 144 hr
Procedure: Values express the percentage of live cells present in the treated cultures relative to the live cells present in the respective untreated cultures and denote means±SD ([WM]; n=3). UT, untreated. […] Values express the percentage of inhibition of Gadd45β binding to MKK7 relative to the binding measured in the absence of peptide. […] Co-immunoprecipitations (IP) were performed using an anti-FLAG antibody (a-FLAG); western blots (WB) were developed using an anti-HA or an anti-MKK7 antibody, as shown.
[…] Cell viability was measured by using trypan blue exclusion or [^3H]thymidine incorporation assays performed in the manner described above (Mauro et al., 2011; Griffiths and Sundaram, 2011; Arnold et al., 2008), as indicated.

thermodynamic solubility = format: physicochemical; conditions: PBS pH 7.4, at 37° C. for 14 days
Procedure: In vitro pharmacokinetic assays were performed according to established, in-house protocols and included: plasma stability (human), thermodynamic solubility (PBS pH 7.4, at 37° C. for 14 days), microsomal stability (human), plasma protein binding (PPB; mouse and human), and distribution coefficient (Log D). In vivo pharmacokinetic analyses were also performed at Cyprotex according to established, in-house protocols. Briefly, the peptides were dissolved in PBS and administered by single intravenous injection to CD1 male mice at the dose of 10 mg/kg (25-30 g of total body weight; n=3 mice per time point per compound). Blood samples were collected in heparinized tubes at up to 7 time points after this injection (i.e. 0.08, 0.25, 0.5, 1, 2, 4 and 8 hr), and the plasma concentrations of the test peptide were determined at each time point by LC-MS/MS, using a five-point standard curve covering a peptide concentration range from 3 to 3,000 ng/mL. Standard curves were prepared using blank plasma matrices and treated in the same manner as the test samples. […] Values were calculated from the data of the peptide plasma concentration versus time curves using a non-compartmental model analysis, as described elsewhere (Groulx, 2006; Landaw and Di Stefano 3rd, 1982). […]

tolerability in mice = format: in vivo
Description: Values denote means±SD (n=3) or SEM (n=5), as indicated. MW, molecular weight.

SMILES: CC(=O)N[C@H](Cc1ccc(O)cc1)C(=O)N[C@H](CCCNC(=N)N)C(=O)N[C@H](Cc1ccccc1)C(N)=O [DTP3, Acetyl-Tyr-Arg-Phe-NH2]
- toxicity to normal cells compared with PS-1145 [1]: far lesser toxicity to normal cells than the IKKβ inhibitor PS-1145
- aqueous solubility (thermodynamic solubility): high aqueous solubility
- tolerability after single administration (tolerability in mice; mice, single i.v. injection, s.c. injection or per os): excellent tolerability
- in-vivo tolerability (tolerability in mice; mouse, in vivo): excellent in-vivo tolerability
- tolerability after prolonged administration (tolerability in mice; osmotic pumps, 28 days, 14.5 mg/kg/day): excellent tolerability and lack of any apparent side effects
